Reference: US10034861B2 (priority 2016, dated 2018)
Where two headings read alike, the source gives them in different places.

Legend:
Assay type in all cases: biochemical
PDE1A = PDE1A (Homo sapiens (Human), UniProt P54750); experiment: biochemical
From the text: (§1) Table 1 lists the IC50 value for inhibition of PDE1 by the compounds of the invention. […] PDE1 assays are described in the Experimental Section.

PDE1C = PDE1C (Homo sapiens (Human), UniProt Q14123); experiment: biochemical
From the text: as §1

PDE1B = PDE1B (Homo sapiens (Human), UniProt Q01064); experiment: PDE1 inhibition assay (PDE1B); details: 15 nM tritium labelled cAMP, 1 hr at room temperature, SPA beads
From the text: as §1

[1] = 15 nM tritium labelled cAMP, 1 hr at room temperature, SPA beads

PDE1B, sequence (Q01064 whole entry): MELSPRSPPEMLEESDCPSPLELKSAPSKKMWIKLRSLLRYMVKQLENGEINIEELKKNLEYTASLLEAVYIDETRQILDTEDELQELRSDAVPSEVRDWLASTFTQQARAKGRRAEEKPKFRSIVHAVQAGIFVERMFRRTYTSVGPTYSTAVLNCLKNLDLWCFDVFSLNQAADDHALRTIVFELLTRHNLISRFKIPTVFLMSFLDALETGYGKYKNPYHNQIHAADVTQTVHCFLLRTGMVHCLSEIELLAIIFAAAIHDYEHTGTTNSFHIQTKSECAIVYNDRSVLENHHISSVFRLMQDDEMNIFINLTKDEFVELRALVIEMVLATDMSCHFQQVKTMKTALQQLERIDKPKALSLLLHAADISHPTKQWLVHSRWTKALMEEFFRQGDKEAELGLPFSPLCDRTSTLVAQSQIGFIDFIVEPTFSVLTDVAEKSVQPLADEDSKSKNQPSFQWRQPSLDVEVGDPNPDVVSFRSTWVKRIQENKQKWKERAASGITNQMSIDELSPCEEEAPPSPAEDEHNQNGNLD
PDE1C, sequence (Q14123 whole entry): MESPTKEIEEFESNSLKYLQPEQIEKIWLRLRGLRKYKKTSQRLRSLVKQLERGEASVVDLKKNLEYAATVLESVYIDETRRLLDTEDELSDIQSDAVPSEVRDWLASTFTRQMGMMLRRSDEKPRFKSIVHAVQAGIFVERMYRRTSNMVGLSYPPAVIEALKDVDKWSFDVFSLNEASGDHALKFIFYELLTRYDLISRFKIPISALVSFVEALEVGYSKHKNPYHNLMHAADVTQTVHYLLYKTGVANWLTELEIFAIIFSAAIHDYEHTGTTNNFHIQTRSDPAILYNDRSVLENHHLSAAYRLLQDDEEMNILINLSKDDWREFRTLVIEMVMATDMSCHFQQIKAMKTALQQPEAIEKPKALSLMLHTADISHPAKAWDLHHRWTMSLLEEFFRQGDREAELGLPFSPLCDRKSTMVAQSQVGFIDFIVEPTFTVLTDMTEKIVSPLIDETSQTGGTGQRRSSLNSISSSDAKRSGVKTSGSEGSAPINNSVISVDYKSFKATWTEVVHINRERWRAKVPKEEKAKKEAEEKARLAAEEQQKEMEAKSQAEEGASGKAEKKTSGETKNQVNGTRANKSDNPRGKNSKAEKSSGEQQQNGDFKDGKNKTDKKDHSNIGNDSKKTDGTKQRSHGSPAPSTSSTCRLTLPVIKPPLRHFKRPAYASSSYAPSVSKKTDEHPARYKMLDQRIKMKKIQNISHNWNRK
PDE1A, sequence (P54750 whole entry): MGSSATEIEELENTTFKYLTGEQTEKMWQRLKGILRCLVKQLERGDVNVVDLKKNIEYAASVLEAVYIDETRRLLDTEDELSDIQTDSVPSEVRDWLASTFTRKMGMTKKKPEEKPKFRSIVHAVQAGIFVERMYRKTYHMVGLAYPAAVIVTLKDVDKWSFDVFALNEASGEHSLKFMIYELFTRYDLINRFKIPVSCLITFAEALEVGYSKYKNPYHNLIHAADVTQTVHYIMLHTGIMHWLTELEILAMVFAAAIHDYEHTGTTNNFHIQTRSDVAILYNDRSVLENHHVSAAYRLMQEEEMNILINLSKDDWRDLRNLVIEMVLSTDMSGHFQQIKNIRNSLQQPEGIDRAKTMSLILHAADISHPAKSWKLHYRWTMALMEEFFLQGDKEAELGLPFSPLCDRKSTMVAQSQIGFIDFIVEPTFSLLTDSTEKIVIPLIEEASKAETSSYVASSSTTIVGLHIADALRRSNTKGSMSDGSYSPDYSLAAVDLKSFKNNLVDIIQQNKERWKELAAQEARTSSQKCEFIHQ

Row | SMILES | IC50 (PDE1A; [1]) [nM] | IC50 (PDE1C) [nM] | IC50 (PDE1B; PDE1B, IC50 (nM)) [nM] | IC50 (PDE1C; [1]) [nM] | IC50 (PDE1B; read-out: PDE1B, IC50) [nM] | IC50 (PDE1A) [nM]
1 | CCOc1ncccc1-c1cc(NCc2ncn(C)n2)c2c(cnn2C(C)CC)n1 (single isomer, unassigned) [Example 140, 5-(2-ethoxy-3-pyridyl)-1-[1-methylpropyl]-N-[(1-methyl-1,2,4-triazol-3-yl)methyl]pyrazolo[4,3-b]pyridin-7-amine] | 32 | 52 | 1.7 |  |  | 
2 | CCOc1ncccc1-c1cc(CCc2ncn(C)n2)c2c(n1)c(C)nn2C(C)C [Example 160, 5-(2-ethoxy-3-pyridyl)-1-isopropyl-3-methyl-7-[2-(1-methyl-1,2,4-triazol-3-yl)ethyl]pyrazolo[4,3-b]pyridine] | 23 |  |  | 56 | 3.9 | 
3 | CCOc1ncccc1-c1cc(NCc2cc(C)n(C)n2)c2c(n1)c(C)nn2C(C)C [Example 54, N-[(1,5-dimethylpyrazol-3-yl)methyl]-5-(2-ethoxy-3-pyridyl)-1-isopropyl-3-methyl-pyrazolo[4,3-b]pyridin-7-amine] | 0.39 |  |  | 4.6 | 0.18 | 
4 | CCCOc1ncccc1-c1cc(NCc2nc[nH]n2)c2c(n1)c(C)nn2C(C)C [Example 146, 1-isopropyl-3-methyl-5-(2-propoxy-3-pyridyl)-N-(1H-1,2,4-triazol-3-ylmethyl)pyrazolo[4,3-b]pyridin-7-amine] | 3.9 |  |  | 14 | 0.51 | 
5 | CCOc1ncccc1-c1cc(SCc2cnn(C)c2)c2c(n1)c(C)nn2C(C)C [Example 164, 5-(2-ethoxy-3-pyridyl)-1-isopropyl-3-methyl-7-[(1-methylpyrazol-4-yl)methylsulfanyl]pyrazolo[4,3-b]pyridine] |  |  | 1.6 | 25 |  | 6.8
6 | CCOc1ncccc1-c1cc(NCc2cccnc2C)c2c(n1)c(C)nn2C(C)C [Example 84, 5-(2-ethoxy-3-pyridyl)-1-isopropyl-3-methyl-N-[(2-methyl-3-pyridyl)methyl]pyrazolo[4,3-b]pyridin-7-amine] | 19 |  |  | 23 | 1.8 | 
7 | Cc1nn(C(C)C)c2c(NCc3cnn(C)c3)cc(N3CC(C)OC3=O)nc12 (stereo not drawn) [Example 150, 3-[1-isopropyl-3-methyl-7-[(1-methylpyrazol-4-yl)methylamino]pyrazolo[4,3-b]pyridin-5-yl]-5-methyl-oxazolidin-2-one] | 44 |  |  | 13 | 33 | 
8 | CCOc1ncccc1-c1cc(NCc2ncccc2OC)c2c(n1)c(C)nn2C(C)C [Example 118, 5-(2-ethoxy-3-pyridyl)-1-isopropyl-N-[(3-methoxy-2-pyridyl)methyl]-3-methyl-pyrazolo[4,3-b]pyridin-7-amine] | 13 |  |  | 88 | 0.42 | 
9 | CCOc1ncccc1-c1cc(NCc2ccccc2)c2c(cnn2C(C)C)n1 [Example 41, N-benzyl-5-(2-ethoxy-3-pyridyl)-1-isopropyl-pyrazolo[4,3-b]pyridin-7-amine] | 500 |  |  | 500 | 45 | 
10 | Cc1nn(C(C)C)c2c(NCc3cnn(C)c3)cc(N3CCN(C(C)(C)C)C3=O)nc12 [Example 153, 1-tert-butyl-3-[1-isopropyl-3-methyl-7-[(1-methylpyrazol-4-yl)methylamino]pyrazolo[4,3-b]pyridin-5-yl]imidazolidin-2-one] | 130 |  |  | 270 | 76 | 
11 | CCOc1ncccc1-c1cc(NCc2cccnc2OC)c2c(n1)c(C)nn2C1COC1 [Example 197, 5-(2-ethoxy-3-pyridyl)-N-[(2-methoxy-3-pyridyl)methyl]-3-methyl-1-(oxetan-3-yl)pyrazolo[4,3-b]pyridin-7-amine] | 190 |  |  | 190 | 13 | 
12 | CCOc1ncccc1-c1cc(NCc2nccc(OC)n2)c2c(n1)c(C)nn2C(C)C [Example 189, 5-(2-ethoxy-3-pyridyl)-1-isopropyl-N-[(4-methoxypyrimidin-2-yl)methyl]-3-methyl-pyrazolo[4,3-b]pyridin-7-amine] | 3.9 |  |  | 19 | 0.49 | 
13 | CCOc1ncccc1-c1cc(NCc2cccn(C)c2=O)c2c(n1)c(C)nn2C(C)C [Example 108, 3-[[[5-(2-ethoxy-3-pyridyl)-1-isopropyl-3-methyl-pyrazolo[4,3-b]pyridin-7-yl]amino]methyl]-1-methyl-pyridin-2-one] | 2.8 |  |  | 12 | 0.36 | 
14 | COc1ncccc1CNc1cc(-c2cccnc2C(F)(F)F)nc2c(C)nn(C(C)C)c12 [Example 183, 1-isopropyl-N-((2-methoxypyridin-3-yl)methyl)-3-methyl-5-(2-(trifluoromethyl)pyridin-3-yl)-1H-pyrazolo[4,3-b]pyridin-7-amine] | 290 |  |  | 350 | 38 | 
15 | CCOc1ncccc1-c1cc(NCc2ccnn2C)c2c(cnn2C(C)C)n1 [Example 18, 5-(2-ethoxypyridin-3-yl)-1-isopropyl-N-((1-methyl-1H-pyrazol-5-yl)methyl)-1H-pyrazolo[4,3-b]pyridin-7-amine] | 450 |  |  | 640 | 73 | 
16 | CCOc1ncccc1-c1cc(NCc2ccc(C)s2)c2c(n1)c(C)nn2C(C)C [Example 36, 5-(2-ethoxy-3-pyridyl)-1-isopropyl-3-methyl-N-[(5-methyl-2-thienyl)methyl]pyrazolo[4,3-b]pyridin-7-amine] | 24 |  |  | 41 | 5.2 | 
17 | Cc1nn(C(C)C)c2c(NCc3cnn(C)c3)cc(N3C(=O)OCC3C)nc12 (stereo not drawn) [Example 155, 3-[1-isopropyl-3-methyl-7-[(1-methylpyrazol-4-yl)methylamino]pyrazolo[4,3-b]pyridin-5-yl]-4-methyl-oxazolidin-2-one] | 8.2 |  |  | 3.9 | 4.9 | 
18 | CCNc1ncccc1-c1cc(NCc2cnn(C)c2)c2c(n1)c(C)nn2C(C)C [Example 79, 5-(2-(ethylamino)pyridin-3-yl)-1-isopropyl-3-methyl-N-((1-methyl-1H-pyrazol-4-yl)methyl)-1H-pyrazolo[4,3-b]pyridin-7-amine] | 230 |  |  | 260 | 31 | 
19 | CCOc1ncccc1-c1cc(NCc2cc(CF)no2)c2c(n1)c(C)nn2C(C)C [Example 167, 5-(2-ethoxy-3-pyridyl)-N-[[3-(fluoromethyl)isoxazol-5-yl]methyl]-1-isopropyl-3-methyl-pyrazolo[4,3-b]pyridin-7-amine] | 11 |  |  | 33 | 1 | 
20 | CCOc1ncccc1-c1cc(NCc2cc(C)on2)c2c(n1)c(C)nn2C(C)C [Example 3, 5-(2-ethoxy-3-pyridyl)-1-isopropyl-3-methyl-N-[(5-methylisoxazol-3-yl)methyl]pyrazolo[4,3-b]pyridin-7-amine] | 0.8 |  |  | 3 | 0.11 | 
21 | CCOc1ncccc1-c1cc(NCc2ccccc2C(F)(F)F)c2c(n1)c(C)nn2C(C)C [Example 90, 5-(2-ethoxy-3-pyridyl)-1-isopropyl-3-methyl-N-[[2-(trifluoromethyl)phenyl]methyl]pyrazolo[4,3-b]pyridin-7-amine] | 270 |  |  | 640 | 12 | 
22 | CCOc1ncccc1-c1cc(NCc2ncn(C)n2)c2c(cnn2C(C)C)n1 [Example 56, 5-(2-ethoxy-3-pyridyl)-1-isopropyl-N-[(1-methyl-1,2,4-triazol-3-yl)methyl]pyrazolo[4,3-b]pyridin-7-amine] | 16 |  |  | 45 | 1 | 
23 | COc1ccc(CNc2cc(-c3cccnc3OC)nc3c(C)nn(C(C)C)c23)cn1 [Example 96, 1-isopropyl-5-(2-methoxy-3-pyridyl)-N-[(6-methoxy-3-pyridyl)methyl]-3-methyl-pyrazolo[4,3-b]pyridin-7-amine] | 18 |  |  | 5.3 | 3.8 | 
24 | COc1ncccc1-c1cc(NCc2cccnc2C(F)(F)F)c2c(n1)c(C)nn2C(C)C [Example 170, 1-isopropyl-5-(2-methoxy-3-pyridyl)-3-methyl-N-[[2-(trifluoromethyl)-3-pyridyl]methyl]pyrazolo[4,3-b]pyridin-7-amine] | 42 |  |  | 46 | 5.3 | 
25 | Cc1nn(C(C)C)c2c(NCc3cnn(C)c3)cc(N3CCCC3=O)nc12 [Example 154, 1-[1-isopropyl-3-methyl-7-[(1-methylpyrazol-4-yl)methylamino]pyrazolo[4,3-b]pyridin-5-yl]pyrrolidin-2-one] | 26 |  |  | 49 | 3.6 | 
26 | Cc1nn(C(C)C)c2c(NCc3cnn(C)c3)cc(N3CCC3=O)nc12 [Example 152, 1-[1-isopropyl-3-methyl-7-[(1-methylpyrazol-4-yl)methylamino]pyrazolo[4,3-b]pyridin-5-yl]azetidin-2-one] | 48 |  |  | 61 | 32 | 
27 | CCOc1ncccc1-c1cc(CNc2cncc(OC)c2)c2c(n1)c(C)nn2C(C)C [Example 157, N-[[5-(2-ethoxy-3-pyridyl)-1-isopropyl-3-methyl-pyrazolo[4,3-b]pyridin-7-yl]methyl]-5-methoxy-pyridin-3-amine] | 34 |  |  | 77 | 14 | 
28 | CCOc1ncccc1-c1cc(NCc2cncc(OC)n2)c2c(n1)c(C)nn2C(C)C [Example 82, 5-(2-ethoxy-3-pyridyl)-1-isopropyl-N-[(6-methoxypyrazin-2-yl)methyl]-3-methyl-pyrazolo[4,3-b]pyridin-7-amine] | 16 |  |  | 35 | 1 | 
29 | COc1ncccc1CNc1cc(-c2cccnc2OC2CC2)nc2c(C)nn(C(C)C)c12 [Example 174, 5-(2-cyclopropoxypyridin-3-yl)-1-isopropyl-N-((2-methoxypyridin-3-yl)methyl)-3-methyl-1H-pyrazolo[4,3-b]pyridin-7-amine] | 18 |  |  | 52 | 1.5 | 
